Results published in patent US20030013660A1, “Dioxolane analogs for improved inter-cellular delivery” (Shire BioChem Inc., priority 2000, published 2003).
“And” between values parts separate entries of the source, which are not always exact repeats. Equal entries are not always repeated. Where two headings read alike, the source gives them in different places.

Experiments:
MCF-7 = assay: 3H-TdR incorporation at 72 hr (24 hr drug exposure, wash, 48 hr); type: cell-based, Human
Method: (§1) Exposition of 24 hr to drug, wash, incubated for another 48 hr (total of 72 hr assay)
(§2) (3H-Thymidine Incorporation Assay)

SF-268 = assay: as above; type: cell-based, Human; conditions: 24 h drug exposure, 72 hr assay
Method: as §1, §2

H-460 [1] = assay: as above; type: cell-based, Human
Method: as §1, §2

CEM/dCK- [2] = assay: as above; type: cell-based; conditions: for IC50: 24 h drug exposure, 72 hr assay; for Factor* (Resistance Factor = Ratio of dCK- on Wild-type CCRF-CEM): ratio of IC50 CEM/dCK- to IC50 CCRF-CEM
Method: as §1, §2

CCRF-CEM [3] = assay: as above; type: cell-based; conditions: read-out: IC50 in μM (3H-TdR incorporation at 72 hr) CCRF-CEM 24 h, CCRF-CEM T-cell Leukemia, 72 hr assay
Method: as §1, §2

CEM/dCK- [4] = assay: 3H-TdR (3H-thymidine) incorporation assay at 72 hr; type: cell-based; conditions: Homo sapiens, CCRF-CEM, read-out: IC50 CEM/dCK- 24 h, 24 h drug exposure, wash, another 48 hr; deoxycytidine kinase-deficient CCRF-CEM
Method: (§3) Table of IC50 Values (μM) for Controls
as §1, §2

CCRF-CEM [5] = assay: 3H-TdR (3H-thymidine) incorporation assay at 72 hr; type: cell-based; conditions: 3H-TdR incorporation at 72 hr
Method: as §3, §1, §2

H-460 [6] = assay: 3H-TdR (3H-thymidine) incorporation assay at 72 hr; type: cell-based, Human; conditions: 3H-TdR incorporation at 72 hr
[7] = Homo sapiens, MCF7, read-out: IC50 in μM (3H-TdR incorporation at 72 hr) MCF-7 24 h, MCF-7 Human Breast Carcinoma, 72 hr assay
[8] = Homo sapiens, SF-268, read-out: IC50 in μM (3H-TdR incorporation at 72 hr) SF-268 24 h, SF-268 Human Central Nervous System Tumor
[9] = Homo sapiens, NCI-H460, read-out: IC50 in μM (3H-TdR incorporation at 72 hr) H-460 24 h, H-460 Human Lung Carcinoma, 72 hr assay
[10] = Homo sapiens, CCRF-CEM, read-out: IC50 in μM (3H-TdR incorporation at 72 hr) CEM/dCK- 24 h, CCRF-CEM deoxycytidine kinase-deficient
[11] = read-out: IC50 in μM (3H-TdR incorporation at 72 hr) MCF-7 24 h, MCF-7 Human Breast Carcinoma, 72 hr assay
[12] = read-out: IC50 in μM (3H-TdR incorporation at 72 hr) SF-268 24 h, SF-268 Human Central Nervous System Tumor
[13] = read-out: IC50 in μM (3H-TdR incorporation at 72 hr) H-460 24 h, H-460 Human Lung Carcinoma, 72 hr assay
[14] = read-out: IC50 in μM (3H-TdR incorporation at 72 hr) CEM/dCK- 24 h, CCRF-CEM deoxycytidine kinase-deficient

SMILES	IC50 (MCF-7; [7])	IC50 (SF-268; [8])	IC50 (H-460 [1]; [9])	IC50 (CEM/dCK- [2]; [10])	IC50 (CCRF-CEM [3]; Homo sapiens, CCRF-CEM)	IC50 (CEM/dCK- [4])	IC50 (CCRF-CEM [5]; Homo sapiens, CCRF-CEM, read-out: IC50 CCRF-CEM 24 h, 24 h drug exposure, wash, another 48 hr)	IC50 (CCRF-CEM [5]; read-out: IC50 CCRF-CEM 24 h, 24 h drug exposure, wash, another 48 hr)	IC50 (MCF-7; [11])	IC50 (SF-268; [12])	IC50 (H-460 [6]; Homo sapiens, NCI-H460, read-out: IC50 H-460 24 h, 24 h drug exposure, wash, another 48 hr)	IC50 (H-460 [6]; read-out: IC50 H-460 24 h, 24 h drug exposure, wash, another 48 hr)	IC50 (CCRF-CEM [3])	IC50 (H-460 [1]; [13])	IC50 (CEM/dCK- [2]; [14])	Factor* (Resistance Factor = Ratio of dCK- on Wild-type CCRF-CEM) (CEM/dCK- [2])
CCCCN(/C=N/c1ccn([C@@H]2CO[C@H](CO)O2)c(=O)n1)CCCC (stereo in doubt) [Compound 221, N,N-Dibutyl-N′-[1-(2-hydroxymethyl [1,3]dioxolan-4-yl)-2-oxo-1,2-dihydro-pyrimidin-4-yl]-formamidine]	0.39 µM	1.6 µM	0.43 µM	> 100 µM	0.13 µM											>769
O=C(Nc1ccn([C@@H]2CO[C@H](CO)O2)c(=O)n1)C12C[C@@H]3C[C@@H](C[C@@H]1C3)C2 (stereo in doubt) [Compound 231, Hexahydro-2,5-Methano-Pentalene-3A-Carboxylic Acid [1-(2-Hydroxymethyl-[1,3]Dioxolan-4-Yl)-2-Oxo-1,2-Dihydro-Pyrimidin-4-Yl]-Amide]		1.1 µM		> 100 µM	0.076 µM											
Cc1cccc(C)c1C(=O)OC[C@H]1OC[C@@H](n2ccc(N)nc2=O)O1 [Compound 162, 1-[2-(2,6-DIMETHYL- BENZOYLOXYMETHYL)- [1,3]DIOXOLAN-4-YL]-2- OXO-1,2-DIHYDRO PYRIMIDIN-4-YL- AMMONIUM; CHLORIDE]	5.7 µM	12 µM		> 100 µM	3.3 µM	> 100 µM	2.2 µM	2.8 µM	3.6 µM	17 µM	8.4 µM	6.4 µM	4.1 µM			
CN(C)CCCOC(=O)OC[C@H]1OC[C@@H](n2ccc(N)nc2=O)O1.O=C(O)C(F)(F)F [Compound 164, CARBONIC ACID 4-(4- AMINO-2-OXO-2H- PYRIMIDIN-1-YL)- [1,3]DIOXOLAN-2- YLMETHYL ESTER 3- DIMETHYLAMINO-PROPYL ESTER TRIFLUORO-ACETIC ACID SALT]	0.14 µM	0.28 µM	0.13 µM	> 100 µM	0.06 µM											1667
CN(C)CCCCOC(=O)Nc1ccn([C@@H]2CO[C@H](CO)O2)c(=O)n1.O=C(O)C(F)(F)F [Compound 169, [1-(2-HYDROXYMETHYL- [1,3]DIOXOLAN-4-YL)-2- OXO-1,2-DIHYDRO- PYRIMIDIN-4-YL]- CARBAMIC ACID 4- DIMETHYLAMINO-BUTYL ESTER TRIFLUOROACETIC ACID SALT]	5.1 µM	7.1 µM	8.2 µM	> 100 µM	2 µM											>50
C#CCN(CC#C)c1ccn([C@@H]2CO[C@H](CO)O2)c(=O)n1 [Compound 171, (S,S) 4-(DI-PROP-2′- YNYL-AMINO)-1-(2″- HYDROXYMETHYL- [1,3]DIOXOLAN-4″-YL)- 1H-PYRIMIDIN-2-ONE]	41 µM	82 µM	45 µM	> 100 µM	38 µM											>2.6
C#CCOC[C@H]1OC[C@@H](n2ccc(N)nc2=O)O1 [Compound 173, (S,S)-4-AMINO-1-(2′- PROP-2′-YNYLOXYMETHYL- [1,3]DIOXOLAN-4′-YL)- 1H-PYRIMIDIN-2-ONE]	17 µM	2 µM	6.1 µM	> 100 µM	2.6 µM											>38
COc1ccc(C(=O)OC[C@H]2OC[C@@H](n3ccc(N)nc3=O)O2)cc1 [Compound 176, 4-METHOXY-BENZOIC ACID 4-(4-AMINO-2-OXO-2H- PYRIMIDIN-1-YL)- [1,3]DIOXOLAN-2- YLMETHYL ESTER]		0.057 µM	0.04 µM	38 µM	0.014 µM					0.032 µM			0.011 µM	0.043 µM	68 µM	
CCCCCCc1ccc(C(=O)OC[C@H]2OC[C@@H](n3ccc(N)nc3=O)O2)cc1 [Compound 191, 4-HEXYL-BENZOIC ACID 4- (4-AMINO-2-OXO-2H- PYRIMIDIN-1-YL)- [1,3]DIOXOLAN-2-YL METHYL ESTER]	< 0.0001 µM	< 0.0001 µM	< 0.0001 µM		< 0.0001 µM											
CCC(CC)(CCCCCCc1ccccc1)C(=O)OC[C@H]1OC[C@@H](n2ccc(N)nc2=O)O1 [Compound 233, 2,2-DIETHYL-8-PHENYL- OCTANOIC ACID 4-(4- AMINO-2-OXO-2H- PYRIMIDIN-1-YL)- [1,3]DIOXOLAN-2-YL METHYL ESTER]	13 µM	12 µM		18 µM	11 µM				9.6 µM and 11 µM	17 µM and 15 µM			9.7 µM		22 µM	

Further lines, with some results ahead:

IC50 (MCF-7; [7])	IC50 (SF-268; [8])	IC50 (H-460 [1]; [9])	IC50 (CEM/dCK- [2]; [10])	IC50 (CCRF-CEM [3]; Homo sapiens, CCRF-CEM)	IC50 (CEM/dCK- [4])	IC50 (CCRF-CEM [5]; Homo sapiens, CCRF-CEM, read-out: IC50 CCRF-CEM 24 h, 24 h drug exposure, wash, another 48 hr)	IC50 (CCRF-CEM [5]; read-out: IC50 CCRF-CEM 24 h, 24 h drug exposure, wash, another 48 hr)	IC50 (MCF-7; [11])	IC50 (SF-268; [12])	IC50 (H-460 [6]; Homo sapiens, NCI-H460, read-out: IC50 H-460 24 h, 24 h drug exposure, wash, another 48 hr)	IC50 (H-460 [6]; read-out: IC50 H-460 24 h, 24 h drug exposure, wash, another 48 hr)	IC50 (CCRF-CEM [3])	IC50 (H-460 [1]; [13])	IC50 (CEM/dCK- [2]; [14])	SMILES	Factor* (Resistance Factor = Ratio of dCK- on Wild-type CCRF-CEM) (CEM/dCK- [2])
0.19 µM	0.85 µM	0.21 µM	> 100 µM	0.11 µM											CN(C)/C=N/c1ccn([C@@H]2CO[C@H](CO)O2)c(=O)n1 (stereo in doubt) [Compound 222, N′-[1-(2-HYDROXYMETHYL- [1,3]DIOXOLAN-4-YL)-2- OXO-1,2-DIHYDRO- PYRIMIDIN-4-YL]-N,N- DIMETHYL-FORMAMIDINE]	>909
8.6 µM	0.12 µM	3.7 µM	> 100 µM	5.1 µM											O=c1nc(/N=C2/CCCN2Cc2ccccc2)ccn1[C@@H]1CO[C@H](CO)O1 (stereo in doubt) [Compound 236, 4-(1-BENZYL-PYRROLIDIN- 2-YLIDENEAMINO)-1-(2- HYDROXYMETHYL- [1,3]DIOXOLAN-4-YL)-1H- PYRIMIDIN-2-ONE]	>20
0.033 µM	0.025 µM	0.0092 µM	27 µM	0.0033 µM											Nc1ccn([C@@H]2CO[C@H](COC(=O)c3ccccc3)O2)c(=O)n1 [Compound 163, BENZOIC ACID 4-(4- AMINO-2-OXO-2H- PYRIMIDIN-1-YL)- [1,3]DIOXOLAN-2- YLMETHYL ESTER]	8,182
10 µM	16 µM	3.4 µM	> 100 µM	1.8 µM											O=C(NCNc1ccn([C@@H]2CO[C@H](CO)O2)c(=O)n1)c1ccccc1 [Compound 165, N-{[1-(2-HYDROXYMETHYL- [1,3]DIOXOLAN-4-YL)-2- OXO-1,2-DIHYDRO- PYRIMIDIN-4-YLAMINO]- METHYL}-BENZAMIDE]	>56
< 0.0001 µM	< 0.0001 µM	< 0.0001 µM		< 0.0001 µM											O=C(CCCCCCCc1ccccc1)Nc1ccn([C@@H]2CO[C@H](CO)O2)c(=O)n1 [Compound 197, 8-PHENYL-OCTANOIC ACID [1-(2-HYDROXYMETHYL- [1,3]DIOXOLAN-4-YL)-2- OXO-1,2-DIHYDRO- PYRIMIDIN-4-YL]-AMIDE]	
	< 0.0001 µM	< 0.0001 µM		< 0.0001 µM											Nc1ccn([C@@H]2CO[C@H](COC(=O)CCCCCCCc3ccccc3)O2)c(=O)n1 [Compound 198, 8-PHENYL-OCTANOIC ACID 4-(4-AMINO-2-OXO-2H- PYRIMIDIN-1-YL)- [1,3]DIOXOLAN-2-YL METHYL ESTER]	
15 µM		13 µM	> 100 µM	11 µM				18 µM					14 µM		O=C(Nc1ccn([C@@H]2CO[C@H](CO)O2)c(=O)n1)C1(c2ccccc2)CCCC1 [Compound 229, 1-PHENYL- CYCLOPENTANECARBOXYLIC ACID [1-(2- HYDROXYMETHYL- [1,3]DIOXOLAN-4-YL)-2- OXO-1,2-DIHYDRO- PYRIMIDIN-4-YL]-AMIDE]	>9
